This note sets out measurements from ChEMBL document CHEMBL3217454, “Structureactivity relationship studies using peptide arrays: the example of HIV-1 Revintegrase interaction” (Medchemcomm, 2013).

Assay [1] concerns Human immunodeficiency virus 1. In words: Binding affinity to HLT-tagged HIV-1 Rev measured after overnight incubation by chemiluminescence analysis relative to IN 174-188. Also on record: concentration or dose not given beside the values.
The target of assay [2] is Human immunodeficiency virus type 1 integrase (Human immunodeficiency virus 1) (UniProt Q7ZJM1). Nature of the assay: Binding affinity to HIV-1 integrase measured after overnight incubation by chemiluminescence analysis relative to IN 174-188. On the set-up: concentration or dose not given beside the values.
Chain of Human immunodeficiency virus type 1 integrase (Human immunodeficiency virus 1) (Q7ZJM1 as listed by the source): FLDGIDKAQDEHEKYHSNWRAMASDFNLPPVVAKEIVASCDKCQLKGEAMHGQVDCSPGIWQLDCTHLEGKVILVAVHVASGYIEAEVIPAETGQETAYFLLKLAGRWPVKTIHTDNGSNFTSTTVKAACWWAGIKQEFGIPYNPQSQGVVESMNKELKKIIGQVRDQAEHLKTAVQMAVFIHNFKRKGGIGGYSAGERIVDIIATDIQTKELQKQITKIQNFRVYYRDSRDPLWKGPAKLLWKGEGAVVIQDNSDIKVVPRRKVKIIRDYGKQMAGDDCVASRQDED

Peptide text beside a SMILES is read from it.

As for `CC[C@H](C)[C@H](NC(=O)[C@H](Cc1ccccc1)NC(=O)[C@@H](NC(=O)[C@H](C)NC(=O)[C@@H](N)CCSC)C(C)C)C(=O)N[C@@H](Cc1cnc[nH]1)C(=O)N[C@@H](CC(N)=O)C(=O)N[C@@H](Cc1ccccc1)C(=O)N[C@@H](CCCCN)C(=O)N[C@@H](CCCNC(=N)N)C(=O)N[C@@H](CCCCN)C(=O)O` (H-MAVFIHNFKRK-OH), the Activity is 88% in assay [1] and 106% in assay [2].
With `CC[C@H](C)[C@H](NC(=O)[C@H](Cc1ccccc1)NC(=O)[C@@H](NC(=O)[C@H](C)NC(=O)[C@H](CCSC)NC(=O)[C@@H](N)CCC(N)=O)C(C)C)C(=O)N[C@@H](Cc1cnc[nH]1)C(=O)N[C@@H](CC(N)=O)C(=O)N[C@@H](Cc1ccccc1)C(=O)N[C@@H](CCCCN)C(=O)N[C@@H](CCCNC(=N)N)C(=O)N[C@@H](CCCCN)C(=O)O` (H-QMAVFIHNFKRK-OH), the Activity was 135% in assay [1] and 122% in assay [2].
Turning to `CC[C@H](C)[C@H](NC(=O)[C@H](Cc1ccccc1)NC(=O)[C@@H](NC(=O)[C@H](C)NC(=O)[C@H](CCSC)NC(=O)[C@H](CCC(N)=O)NC(=O)[C@H](C)NC(=O)[C@H](C)NC(=O)[C@@H](N)[C@@H](C)O)C(C)C)C(=O)N[C@@H](Cc1cnc[nH]1)C(=O)N[C@@H](CC(N)=O)C(=O)N[C@@H](Cc1ccccc1)C(=O)N[C@@H](CCCCN)C(=O)N[C@@H](CCCNC(=N)N)C(=O)N[C@@H](CCCCN)C(=O)O` (H-TAAQMAVFIHNFKRK-OH), the Activity is 106% in assay [1] and 115% in assay [2].
On the same counts, the results for `CC[C@H](C)[C@H](NC(=O)[C@H](Cc1ccccc1)NC(=O)[C@@H](NC(=O)[C@H](C)NC(=O)[C@H](CCSC)NC(=O)[C@H](C)NC(=O)[C@@H](NC(=O)[C@H](C)NC(=O)[C@@H](N)[C@@H](C)O)C(C)C)C(C)C)C(=O)N[C@@H](Cc1cnc[nH]1)C(=O)N[C@@H](CC(N)=O)C(=O)N[C@@H](Cc1ccccc1)C(=O)N[C@@H](CCCCN)C(=O)N[C@@H](CCCNC(=N)N)C(=O)N[C@@H](CCCCN)C(=O)O` (H-TAVAMAVFIHNFKRK-OH) are 79% and 83%.
Regarding `CC[C@H](C)[C@H](NC(=O)[C@H](Cc1ccccc1)NC(=O)[C@@H](NC(=O)[C@H](C)NC(=O)[C@H](C)NC(=O)[C@H](CCC(N)=O)NC(=O)[C@@H](NC(=O)[C@H](C)NC(=O)[C@@H](N)[C@@H](C)O)C(C)C)C(C)C)C(=O)N[C@@H](Cc1cnc[nH]1)C(=O)N[C@@H](CC(N)=O)C(=O)N[C@@H](Cc1ccccc1)C(=O)N[C@@H](CCCCN)C(=O)N[C@@H](CCCNC(=N)N)C(=O)N[C@@H](CCCCN)C(=O)O` (H-TAVQAAVFIHNFKRK-OH), the results for the Activity in assay [1] and in assay [2] were 172% and 113%, respectively.
In the case of `CC[C@H](C)[C@H](NC(=O)[C@H](Cc1ccccc1)NC(=O)[C@H](C)NC(=O)[C@H](C)NC(=O)[C@H](CCSC)NC(=O)[C@H](CCC(N)=O)NC(=O)[C@@H](NC(=O)[C@H](C)NC(=O)[C@@H](N)[C@@H](C)O)C(C)C)C(=O)N[C@@H](Cc1cnc[nH]1)C(=O)N[C@@H](CC(N)=O)C(=O)N[C@@H](Cc1ccccc1)C(=O)N[C@@H](CCCCN)C(=O)N[C@@H](CCCNC(=N)N)C(=O)N[C@@H](CCCCN)C(=O)O` (H-TAVQMAAFIHNFKRK-OH), the figures for the Activity in assay [1] and in assay [2] were 222% and 123%, respectively.
Turning to `CC[C@H](C)[C@H](NC(=O)[C@H](C)NC(=O)[C@@H](NC(=O)[C@H](C)NC(=O)[C@H](CCSC)NC(=O)[C@H](CCC(N)=O)NC(=O)[C@@H](NC(=O)[C@H](C)NC(=O)[C@@H](N)[C@@H](C)O)C(C)C)C(C)C)C(=O)N[C@@H](Cc1cnc[nH]1)C(=O)N[C@@H](CC(N)=O)C(=O)N[C@@H](Cc1ccccc1)C(=O)N[C@@H](CCCCN)C(=O)N[C@@H](CCCNC(=N)N)C(=O)N[C@@H](CCCCN)C(=O)O` (H-TAVQMAVAIHNFKRK-OH), the Activity came out at 216% in assay [1] and 104% in assay [2].
Consider `CSCC[C@H](NC(=O)[C@H](CCC(N)=O)NC(=O)[C@@H](NC(=O)[C@H](C)NC(=O)[C@@H](N)[C@@H](C)O)C(C)C)C(=O)N[C@@H](C)C(=O)N[C@H](C(=O)N[C@@H](Cc1ccccc1)C(=O)O)C(C)C` (H-TAVQMAVF-OH), for which the Activity in assay [1] and in assay [2] was 0% in each case.
For the compound `CSCC[C@H](NC(=O)[C@H](CCC(N)=O)NC(=O)[C@@H](NC(=O)[C@H](C)NC(=O)[C@@H](N)[C@@H](C)O)C(C)C)C(=O)N[C@@H](C)C(=O)N[C@H](C(=O)N[C@@H](Cc1ccccc1)C(=O)N[C@@H](C)C(=O)N[C@@H](Cc1cnc[nH]1)C(=O)N[C@@H](CC(N)=O)C(=O)N[C@@H](Cc1ccccc1)C(=O)N[C@@H](CCCCN)C(=O)N[C@@H](CCCNC(=N)N)C(=O)N[C@@H](CCCCN)C(=O)O)C(C)C` (H-TAVQMAVFAHNFKRK-OH), the Activity in assay [1] amounted to 254%; in assay [2], 156%.
On the same counts, the results for `CC[C@H](C)[C@H](NC(=O)[C@H](Cc1ccccc1)NC(=O)[C@@H](NC(=O)[C@H](C)NC(=O)[C@H](CCSC)NC(=O)[C@H](CCC(N)=O)NC(=O)[C@@H](NC(=O)[C@H](C)NC(=O)[C@@H](N)[C@@H](C)O)C(C)C)C(C)C)C(=O)O` (H-TAVQMAVFI-OH) are 0% and 0%.
With `CC[C@H](C)[C@H](NC(=O)[C@H](Cc1ccccc1)NC(=O)[C@@H](NC(=O)[C@H](C)NC(=O)[C@H](CCSC)NC(=O)[C@H](CCC(N)=O)NC(=O)[C@@H](NC(=O)[C@H](C)NC(=O)[C@@H](N)[C@@H](C)O)C(C)C)C(C)C)C(=O)N[C@@H](C)C(=O)N[C@@H](CC(N)=O)C(=O)N[C@@H](Cc1ccccc1)C(=O)N[C@@H](CCCCN)C(=O)N[C@@H](CCCNC(=N)N)C(=O)N[C@@H](CCCCN)C(=O)O` (H-TAVQMAVFIANFKRK-OH), the Activity was determined as 121% in assay [1] and 122% in assay [2].
Take `CC[C@H](C)[C@H](NC(=O)[C@H](Cc1ccccc1)NC(=O)[C@@H](NC(=O)[C@H](C)NC(=O)[C@H](CCSC)NC(=O)[C@H](CCC(N)=O)NC(=O)[C@@H](NC(=O)[C@H](C)NC(=O)[C@@H](N)[C@@H](C)O)C(C)C)C(C)C)C(=O)N[C@@H](Cc1cnc[nH]1)C(=O)O` (H-TAVQMAVFIH-OH): the Activity in assay [1] and in assay [2] was 0% each time.
On to `CC[C@H](C)[C@H](NC(=O)[C@H](Cc1ccccc1)NC(=O)[C@@H](NC(=O)[C@H](C)NC(=O)[C@H](CCSC)NC(=O)[C@H](CCC(N)=O)NC(=O)[C@@H](NC(=O)[C@H](C)NC(=O)[C@@H](N)[C@@H](C)O)C(C)C)C(C)C)C(=O)N[C@@H](Cc1cnc[nH]1)C(=O)N[C@@H](C)C(=O)N[C@@H](Cc1ccccc1)C(=O)N[C@@H](CCCCN)C(=O)N[C@@H](CCCNC(=N)N)C(=O)N[C@@H](CCCCN)C(=O)O` (H-TAVQMAVFIHAFKRK-OH), for which the values for the Activity in assay [1] and in assay [2] were 105% and 33%, respectively.
On to `CC[C@H](C)[C@H](NC(=O)[C@H](Cc1ccccc1)NC(=O)[C@@H](NC(=O)[C@H](C)NC(=O)[C@H](CCSC)NC(=O)[C@H](CCC(N)=O)NC(=O)[C@@H](NC(=O)[C@H](C)NC(=O)[C@@H](N)[C@@H](C)O)C(C)C)C(C)C)C(=O)N[C@@H](Cc1cnc[nH]1)C(=O)N[C@@H](CC(N)=O)C(=O)O` (H-TAVQMAVFIHN-OH), for which the Activity in assay [1] and in assay [2] was 0% each time.
On to `CC[C@H](C)[C@H](NC(=O)[C@H](Cc1ccccc1)NC(=O)[C@@H](NC(=O)[C@H](C)NC(=O)[C@H](CCSC)NC(=O)[C@H](CCC(N)=O)NC(=O)[C@@H](NC(=O)[C@H](C)NC(=O)[C@@H](N)[C@@H](C)O)C(C)C)C(C)C)C(=O)N[C@@H](Cc1cnc[nH]1)C(=O)N[C@@H](CC(N)=O)C(=O)N[C@@H](C)C(=O)N[C@@H](CCCCN)C(=O)N[C@@H](CCCNC(=N)N)C(=O)N[C@@H](CCCCN)C(=O)O` (H-TAVQMAVFIHNAKRK-OH), for which the Activity in assay [1] worked out at 193%; in assay [2] it was 134%.
As for `CC[C@H](C)[C@H](NC(=O)[C@H](Cc1ccccc1)NC(=O)[C@@H](NC(=O)[C@H](C)NC(=O)[C@H](CCSC)NC(=O)[C@H](CCC(N)=O)NC(=O)[C@@H](NC(=O)[C@H](C)NC(=O)[C@@H](N)[C@@H](C)O)C(C)C)C(C)C)C(=O)N[C@@H](Cc1cnc[nH]1)C(=O)N[C@@H](CC(N)=O)C(=O)N[C@@H](Cc1ccccc1)C(=O)O` (H-TAVQMAVFIHNF-OH), the Activity in assay [1] and in assay [2] was 0% in each case.
In the case of `CC[C@H](C)[C@H](NC(=O)[C@H](Cc1ccccc1)NC(=O)[C@@H](NC(=O)[C@H](C)NC(=O)[C@H](CCSC)NC(=O)[C@H](CCC(N)=O)NC(=O)[C@@H](NC(=O)[C@H](C)NC(=O)[C@@H](N)[C@@H](C)O)C(C)C)C(C)C)C(=O)N[C@@H](Cc1cnc[nH]1)C(=O)N[C@@H](CC(N)=O)C(=O)N[C@@H](Cc1ccccc1)C(=O)N[C@@H](C)C(=O)N[C@@H](CCCNC(=N)N)C(=O)N[C@@H](CCCCN)C(=O)O` (H-TAVQMAVFIHNFARK-OH), the figures for the Activity in assay [1] and in assay [2] were 176% and 91%, respectively.
`CC[C@H](C)[C@H](NC(=O)[C@H](Cc1ccccc1)NC(=O)[C@@H](NC(=O)[C@H](C)NC(=O)[C@H](CCSC)NC(=O)[C@H](CCC(N)=O)NC(=O)[C@@H](NC(=O)[C@H](C)NC(=O)[C@@H](N)[C@@H](C)O)C(C)C)C(C)C)C(=O)N[C@@H](Cc1cnc[nH]1)C(=O)N[C@@H](CC(N)=O)C(=O)N[C@@H](Cc1ccccc1)C(=O)N[C@@H](CCCCN)C(=O)O` (H-TAVQMAVFIHNFK-OH): the Activity in assay [1] was found to be 127%; in assay [2] it was 120%.
Turning to `CC[C@H](C)[C@H](NC(=O)[C@H](Cc1ccccc1)NC(=O)[C@@H](NC(=O)[C@H](C)NC(=O)[C@H](CCSC)NC(=O)[C@H](CCC(N)=O)NC(=O)[C@@H](NC(=O)[C@H](C)NC(=O)[C@@H](N)[C@@H](C)O)C(C)C)C(C)C)C(=O)N[C@@H](Cc1cnc[nH]1)C(=O)N[C@@H](CC(N)=O)C(=O)N[C@@H](Cc1ccccc1)C(=O)N[C@@H](CCCCN)C(=O)N[C@@H](C)C(=O)N[C@@H](CCCCN)C(=O)O` (H-TAVQMAVFIHNFKAK-OH), the Activity in assay [1] came out at 234%; in assay [2], 127%.
On to `CC[C@H](C)[C@H](NC(=O)[C@H](Cc1ccccc1)NC(=O)[C@@H](NC(=O)[C@H](C)NC(=O)[C@H](CCSC)NC(=O)[C@H](CCC(N)=O)NC(=O)[C@@H](NC(=O)[C@H](C)NC(=O)[C@@H](N)[C@@H](C)O)C(C)C)C(C)C)C(=O)N[C@@H](Cc1cnc[nH]1)C(=O)N[C@@H](CC(N)=O)C(=O)N[C@@H](Cc1ccccc1)C(=O)N[C@@H](CCCCN)C(=O)N[C@@H](CCCNC(=N)N)C(=O)O` (H-TAVQMAVFIHNFKR-OH), for which the Activity in assay [1] amounted to 114%; in assay [2] it was 87%.
